From US20200206233A1 (INTEGRAL BIOSCIENCES PRIVATE LIMITED, priority 2018, published 2020)

What follows are molecules tested against T1, IDH1 mutant (R132H) (Homo sapiens, UniProt O75874, R132H) (assay: Mutant IDH1-R132H Fluorescence Assay (Resazurin based)). Details: 10 nM IDH1 R132H, 4 mM α-ketoglutarate, NADPH, 1.5 h at room temperature.
T1 construct: purchased BPS Bioscience 71099-2
Format: biochemical
Description: IC50 values of compounds against IDH1 mutant (R132H) was determined by Resazurin based Fluorescence assay. Assays were performed in Buffer (25 mM Tris HCl, 150 mM NaCl, 10 mM MgCl2, 0.03% BSA, 2 mM 1-mercaptoethanol) where total reaction volume was 12.5 μL in low-volume 384-well plates (Cat #4511, Corning). Serially diluted compounds (3-fold) were incubated with cocktail of α-ketoglutarate (4 mM; Cat #75892-25G, Sigma), NADPH ([…]; Cat # N1630-100MG, Sigma) and buffer for 5 min, following IDH1 R132H mutant (10 nM; Cat #71099-2, BPS Bioscience) was added and incubated in dark at room temperature for 1.5 h. After 1.5 h, 6.25 μL detection solution containing Resazurin ([…]; (Cat #62758-13-8, Sigma) and Diaphorase (40 ug/ml; Cat # D2197-300UN, Sigma) in buffer was added and incubated for 15 min. Readings were taken in a Synergy Neo Plate reader (BioTek, Winooski) at single excitation of 540 nm and emission at 590 nm respectively.
The % (percent) activity of test samples was calculated as (Sample−Min)×100/(Max−Min). [Max: DMSO control, complete reaction with enzyme with DMSO and Min: No enzyme with DMSO]. Percent inhibition (100−% activity) was fitted to the “four-parameter logistic model” in XLfit for determination of IC50 values.

T1 sequence (O75874 whole entry R132H): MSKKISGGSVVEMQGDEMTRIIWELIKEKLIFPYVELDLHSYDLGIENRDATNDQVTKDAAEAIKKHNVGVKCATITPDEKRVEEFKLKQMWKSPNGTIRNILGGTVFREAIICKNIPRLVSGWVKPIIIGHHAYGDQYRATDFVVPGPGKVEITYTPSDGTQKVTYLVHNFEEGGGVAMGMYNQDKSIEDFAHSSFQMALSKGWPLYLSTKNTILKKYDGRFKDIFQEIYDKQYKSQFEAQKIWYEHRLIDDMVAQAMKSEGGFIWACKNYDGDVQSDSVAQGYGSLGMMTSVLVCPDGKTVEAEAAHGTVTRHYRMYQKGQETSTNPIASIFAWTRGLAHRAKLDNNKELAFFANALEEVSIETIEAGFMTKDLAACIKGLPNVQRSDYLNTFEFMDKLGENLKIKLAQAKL

| SMILES | IC50 [µM] |
| --- | --- |
| Cc1nc(N[C@@H](C)c2ccc(Oc3ccccc3)cc2)nc(N2C(=O)OCC2(C)C)n1 [Compound 1.110, (S)-4,4-dimethyl-3-(4-methyl-6-(1-(4-phenoxyphenyl)ethylamino)-1,3,5-triazin-2-yl)oxazolidin-2-one] | 2.02 |
| CC[C@H]1COC(=O)N1c1nc(C)nc(N[C@@H](C)c2ccc(Oc3cccnc3)cc2)n1 [Compound 1.74, (S)-4-ethyl-3-(4-methyl-6-((S)-1-(4-(pyridin-3-yloxy)phenyl)ethylamino)-1,3,5-triazin-2-yl)oxazolidin-2-one] | > 30 |
| CC(C)[C@H]1COC(=O)N1c1ncnc(N[C@@H](C)c2ccccn2)n1 [Compound 1.30, (S)-4-isopropyl-3-(4-((S)-1-(pyridin-2-yl)ethylamino)-1,3,5-triazin-2-yl)oxazolidin-2-one] | > 30 |
| CC[C@H]1COC(=O)N1c1nc(C)nc(N[C@@H](C)c2ccc(-c3ccc(F)c(C)c3)cn2)n1 [Compound 1.68, (S)-4-ethyl-3-(4-((S)-1-(5-(4-fluoro-3-methylphenyl)pyridin-2-yl)ethylamino)-6-methyl-1,3,5-triazin-2-yl)oxazolidin-2-one] | 1.58 |
| CC[C@H]1COC(=O)N1c1nc(C)nc(N[C@H](C)c2ccc(OCc3ccccn3)cc2)n1 [Compound 1.61, (S)-4-ethyl-3-(4-methyl-6-((R)-1-(4-(pyridin-2-ylmethoxy)phenyl)ethylamino)-1,3,5-triazin-2-yl)oxazolidin-2-one] | 17 |
| CC[C@H]1COC(=O)N1c1nc(C)nc(N[C@@H](C)c2ccc(Nc3ccccc3)cc2)n1 [Compound 1.89, (S)-4-ethyl-3-(4-methyl-6-((S)-1-(4-(phenylamino)phenyl)ethylamino)-1,3,5-triazin-2-yl)oxazolidin-2-one] | 1.42 |
| C[C@@H](Nc1ncnc(N2C(=O)OC[C@@H]2C)n1)c1ccc(Oc2ccccc2)cc1 [Compound 1.17, (S)-4-methyl-3-(4-((R)-1-(4-phenoxyphenyl)ethylamino)-1,3,5-triazin-2-yl)oxazolidin-2-one] | > 30 |
| CC[C@H]1COC(=O)N1c1nc(C)nc(N[C@H](C)c2cc3cc(OC)ccc3[nH]c2=O)n1 [Compound 1.56, (S)-4-ethyl-3-(4-((R)-1-(6-methoxy-2-oxo-1,2-dihydroquinolin-3-yl)ethylamino)-6-methyl-1,3,5-triazin-2-yl)oxazolidin-2-one] | > 30 |
| CC[C@H]1COC(=O)N1c1nc(C)nc(N[C@H](C)c2ccc(Nc3ccccc3)cc2)n1 [Compound 1.88, (S)-4-ethyl-3-(4-methyl-6-((R)-1-(4-(phenylamino)phenyl)ethylamino)-1,3,5-triazin-2-yl)oxazolidin-2-one] | > 30 |
| CC[C@H]1COC(=O)N1c1nc(C)nc(N[C@@H](C)c2cn3cc(Br)ccc3n2)n1 [Compound 1.47, (S)-3-(4-((S)-1-(6-bromoimidazo[1,2-a]pyridin-2-yl)ethylamino)-6-methyl-1,3,5-triazin-2-yl)-4-ethyloxazolidin-2-one] | 3.18 |
| CC[C@H]1COC(=O)N1c1nc(C)nc(N[C@@H](C)c2ccc3c(ccn3-c3ccccc3)c2)n1 [Compound 1.90, (S)-4-ethyl-3-(4-methyl-6-((S)-1-(1-phenyl-1H-indol-5-yl)ethylamino)-1,3,5-triazin-2-yl)oxazolidin-2-one] | 1.54 |
| Cc1nc(N[C@@H](C)c2ccc(Oc3ccccc3)cc2)nc(N2C(=O)OC[C@@H]2C)n1 [Compound 1.65, (S)-4-methyl-3-(4-methyl-6-((S)-1-(4-phenoxyphenyl)ethylamino)-1,3,5-triazin-2-yl)oxazolidin-2-one] | 2.65 |
| CC(C)[C@H]1COC(=O)N1c1ncnc(N[C@H](C)c2cn(-c3ccc(Cl)cc3)cn2)n1 [Compound 1.14, (S)-3-(4-((R)-1-(1-(4-chlorophenyl)-1H-imidazol-4-yl)ethylamino)-1,3,5-triazin-2-yl)-4-isopropyloxazolidin-2-one] | 24.5 |
